Results published in the NIST ThermoML archive (doi:10.1016/j.jct.2009.11.014).
Numbers after ± are expanded uncertainties.

Details: Liquid; for mass density: vibrating tube; for viscosity: Stony Brook Scientific falling needle HPHTV-100 viscometer

CCCCCCn1cc[n+](C)c1.F[B-](F)(F)F [1-hexyl-3-methylimidazolium tetrafluoroborate]
Details	mass density [kg/m3]	viscosity [mPa·s]
283.15 K, 100 kPa	1155.97 ± 0.97	–
283.15 K, 2000 kPa	1156.84 ± 0.96	–
283.15 K, 4000 kPa	1157.76 ± 0.96	–
283.15 K, 6000 kPa	1158.69 ± 0.98	–
283.15 K, 8000 kPa	1159.61 ± 0.96	–
283.15 K, 10000 kPa	1160.53 ± 0.96	–
283.15 K, 12000 kPa	1161.43 ± 0.96	–
283.15 K, 14000 kPa	1162.34 ± 0.96	–
283.15 K, 20000 kPa	1165.02 ± 0.95	–
283.15 K, 30000 kPa	1169.4 ± 0.96	–
283.15 K, 40000 kPa	1173.6 ± 0.96	–
283.15 K, 50000 kPa	1177.7 ± 0.96	–
283.15 K, 60000 kPa	1181.65 ± 0.97	–
285.09 K, 4270 kPa	–	449.6 ± 50
285.15 K, 130 kPa	–	420.5 ± 46
285.15 K, 1400 kPa	–	430.2 ± 47
285.15 K, 3170 kPa	–	437 ± 48
285.15 K, 5380 kPa	–	457.2 ± 52
285.15 K, 12640 kPa	–	495.6 ± 54
285.2 K, 5080 kPa	–	447.9 ± 49
285.22 K, 12000 kPa	–	488.4 ± 54
285.23 K, 7090 kPa	–	460.6 ± 51
285.23 K, 10000 kPa	–	481.6 ± 53
285.23 K, 14220 kPa	–	504.9 ± 56
285.25 K, 8290 kPa	–	468.5 ± 52
288.15 K, 100 kPa	1152.44 ± 0.97	–
288.15 K, 2000 kPa	1153.37 ± 0.96	–
288.15 K, 4000 kPa	1154.32 ± 0.96	–
288.15 K, 6000 kPa	1155.11 ± 0.96	–
288.15 K, 8000 kPa	1156.19 ± 0.96	–
288.15 K, 10000 kPa	1157.11 ± 0.96	–
288.15 K, 12000 kPa	1158.05 ± 0.96	–
288.15 K, 14000 kPa	1158.97 ± 0.96	–
288.15 K, 20000 kPa	1161.68 ± 0.96	–
288.15 K, 30000 kPa	1166.05 ± 0.96	–
288.15 K, 40000 kPa	1170.31 ± 0.96	–
288.15 K, 50000 kPa	1174.45 ± 0.97	–
288.15 K, 60000 kPa	1178.4 ± 0.97	–
293.15 K, 100 kPa	1148.92 ± 0.96	–
293.15 K, 2000 kPa	1149.88 ± 0.97	–
293.15 K, 4000 kPa	1150.84 ± 0.96	–
293.15 K, 6000 kPa	1151.81 ± 0.95	–
293.15 K, 8000 kPa	1152.76 ± 0.96	–
293.15 K, 10000 kPa	1153.7 ± 0.96	–
293.15 K, 12000 kPa	1154.65 ± 0.96	–
293.15 K, 14000 kPa	1155.57 ± 0.96	–
293.15 K, 20000 kPa	1158.32 ± 0.96	–
293.15 K, 30000 kPa	1162.74 ± 0.96	–
293.15 K, 40000 kPa	1167.02 ± 0.96	–
293.15 K, 50000 kPa	1171.16 ± 0.96	–
293.15 K, 60000 kPa	1175.18 ± 0.96	–
294.65 K, 14670 kPa	–	285.1 ± 35
294.75 K, 8260 kPa	–	261.3 ± 32
294.75 K, 10200 kPa	–	270.5 ± 33
294.75 K, 12300 kPa	–	278.6 ± 34
294.77 K, 6430 kPa	–	254.4 ± 28
294.85 K, 140 kPa	–	238.3 ± 29
294.85 K, 760 kPa	–	238.2 ± 29
294.85 K, 2760 kPa	–	242.5 ± 30
294.85 K, 4280 kPa	–	246.6 ± 30
294.91 K, 1460 kPa	–	238.3 ± 29
298.15 K, 100 kPa	1145.47 ± 0.96	–
298.15 K, 2000 kPa	1146.39 ± 0.96	–
298.15 K, 4000 kPa	1147.43 ± 0.96	–
298.15 K, 6000 kPa	1148.36 ± 0.96	–
298.15 K, 8000 kPa	1149.29 ± 0.96	–
298.15 K, 10000 kPa	1150.27 ± 0.96	–
298.15 K, 12000 kPa	1151.22 ± 0.96	–
298.15 K, 14000 kPa	1152.19 ± 0.96	–
298.15 K, 20000 kPa	1154.94 ± 0.96	–
298.15 K, 30000 kPa	1159.42 ± 0.95	–
298.15 K, 40000 kPa	1163.75 ± 0.95	–
298.15 K, 50000 kPa	1167.96 ± 0.96	–
298.15 K, 60000 kPa	1172.02 ± 0.96	–
300.25 K, 1630 kPa	–	179.8 ± 21
300.39 K, 2690 kPa	–	180.5 ± 20
300.42 K, 14380 kPa	–	210.1 ± 24
300.49 K, 4140 kPa	–	184.2 ± 21
300.61 K, 6190 kPa	–	187 ± 21
300.61 K, 12340 kPa	–	202.5 ± 23
300.62 K, 8490 kPa	–	191.3 ± 22
300.68 K, 10400 kPa	–	196.1 ± 22
300.75 K, 1410 kPa	–	175.2 ± 20
300.85 K, 120 kPa	–	168.1 ± 19
303.15 K, 100 kPa	1141.99 ± 0.96	–
303.15 K, 2000 kPa	1142.93 ± 0.96	–
303.15 K, 4000 kPa	1143.92 ± 0.96	–
303.15 K, 6000 kPa	1144.93 ± 0.96	–
303.15 K, 8000 kPa	1145.93 ± 0.96	–
303.15 K, 10000 kPa	1146.85 ± 0.96	–
303.15 K, 12000 kPa	1147.82 ± 0.96	–
303.15 K, 14000 kPa	1148.83 ± 0.96	–
303.15 K, 20000 kPa	1151.57 ± 0.96	–
303.15 K, 30000 kPa	1156.18 ± 0.95	–
303.15 K, 40000 kPa	1160.55 ± 0.96	–
303.15 K, 50000 kPa	1164.76 ± 0.96	–
303.15 K, 60000 kPa	1168.87 ± 0.96	–
308.15 K, 100 kPa	1138.53 ± 0.96	–
308.15 K, 2000 kPa	1139.5 ± 0.96	–
308.15 K, 4000 kPa	1140.49 ± 0.95	–
308.15 K, 6000 kPa	1141.48 ± 0.95	–
308.15 K, 8000 kPa	1142.48 ± 0.95	–
308.15 K, 10000 kPa	1143.45 ± 0.95	–
308.15 K, 12000 kPa	1144.45 ± 0.95	–
308.15 K, 14000 kPa	1145.41 ± 0.95	–
308.15 K, 20000 kPa	1148.24 ± 0.95	–
308.15 K, 30000 kPa	1152.83 ± 0.95	–
308.15 K, 40000 kPa	1157.26 ± 0.95	–
308.15 K, 50000 kPa	1161.57 ± 0.95	–
308.15 K, 60000 kPa	1165.72 ± 0.95	–
308.25 K, 1850 kPa	–	114.6 ± 14
308.35 K, 14230 kPa	–	131.8 ± 15
308.48 K, 12350 kPa	–	128.7 ± 14
308.55 K, 10300 kPa	–	125.6 ± 14
308.59 K, 8230 kPa	–	122.7 ± 14
308.65 K, 110 kPa	–	112.3 ± 12
308.65 K, 800 kPa	–	113 ± 12
308.65 K, 1730 kPa	–	114.4 ± 14
308.65 K, 2760 kPa	–	115.1 ± 13
308.65 K, 4300 kPa	–	117.5 ± 13
308.65 K, 6380 kPa	–	120.2 ± 13
313.15 K, 100 kPa	1135.1 ± 0.95	–
313.15 K, 2000 kPa	1136.08 ± 0.95	–
313.15 K, 4000 kPa	1137.11 ± 0.95	–
313.15 K, 6000 kPa	1138.14 ± 0.95	–
313.15 K, 8000 kPa	1139.15 ± 0.95	–
313.15 K, 10000 kPa	1140.14 ± 0.95	–
313.15 K, 12000 kPa	1141.13 ± 0.95	–
313.15 K, 14000 kPa	1142.09 ± 0.95	–
313.15 K, 20000 kPa	1144.98 ± 0.94	–
313.15 K, 30000 kPa	1149.62 ± 0.94	–
313.15 K, 40000 kPa	1154.1 ± 0.94	–
313.15 K, 50000 kPa	1158.44 ± 0.95	–
313.15 K, 60000 kPa	1162.62 ± 0.95	–
318.15 K, 100 kPa	1131.72 ± 0.95	–
318.15 K, 2000 kPa	1132.7 ± 0.95	–
318.15 K, 4000 kPa	1133.74 ± 0.95	–
318.15 K, 6000 kPa	1134.77 ± 0.95	–
318.15 K, 8000 kPa	1135.78 ± 0.95	–
318.15 K, 10000 kPa	1136.79 ± 0.95	–
318.15 K, 12000 kPa	1137.78 ± 0.95	–
318.15 K, 14000 kPa	1138.79 ± 0.95	–
318.15 K, 20000 kPa	1141.71 ± 0.95	–
318.15 K, 30000 kPa	1146.4 ± 0.94	–
318.15 K, 40000 kPa	1150.92 ± 0.98	–
318.15 K, 50000 kPa	1155.3 ± 0.95	–
318.15 K, 60000 kPa	1159.5 ± 0.95	–
319.85 K, 2700 kPa	–	70.1 ± 8.1
319.89 K, 110 kPa	–	67.7 ± 7.9
319.95 K, 700 kPa	–	68.1 ± 7.9
319.95 K, 4470 kPa	–	70.7 ± 8.2
319.95 K, 6480 kPa	–	72.9 ± 8.4
319.95 K, 14430 kPa	–	77.8 ± 9.1
319.98 K, 3850 kPa	–	70.5 ± 8.2
319.98 K, 12490 kPa	–	76.1 ± 8.9
319.99 K, 8440 kPa	–	73.7 ± 8.5
320.03 K, 1300 kPa	–	68.2 ± 7.9
320.05 K, 2440 kPa	–	69.2 ± 8
320.05 K, 10500 kPa	–	74.9 ± 8.7
323.15 K, 100 kPa	1128.3 ± 0.95	–
323.15 K, 2000 kPa	1129.31 ± 0.95	–
323.15 K, 4000 kPa	1130.36 ± 0.95	–
323.15 K, 6000 kPa	1131.4 ± 0.95	–
323.15 K, 8000 kPa	1132.43 ± 0.95	–
323.15 K, 10000 kPa	1133.45 ± 0.95	–
323.15 K, 12000 kPa	1134.46 ± 0.95	–
323.15 K, 14000 kPa	1135.46 ± 0.95	–
323.15 K, 20000 kPa	1138.4 ± 0.95	–
323.15 K, 30000 kPa	1143.16 ± 0.98	–
323.15 K, 40000 kPa	1147.2 ± 1	–
323.15 K, 50000 kPa	1152.14 ± 0.98	–
323.15 K, 60000 kPa	1156.42 ± 0.95	–
